Results as given in ChEMBL document CHEMBL1129863, “Synthesis and biological evaluation of 5,6-diarylimidazo[2.1-b]thiazole as selective COX-2 inhibitors” (Bioorg Med Chem Lett, 1997).

Legend:
[1] = target: T1, Prostaglandin G/H synthase 2 (Homo sapiens, UniProt P35354); assay type: cell-based, CHO
T1 sequence (P35354 whole entry): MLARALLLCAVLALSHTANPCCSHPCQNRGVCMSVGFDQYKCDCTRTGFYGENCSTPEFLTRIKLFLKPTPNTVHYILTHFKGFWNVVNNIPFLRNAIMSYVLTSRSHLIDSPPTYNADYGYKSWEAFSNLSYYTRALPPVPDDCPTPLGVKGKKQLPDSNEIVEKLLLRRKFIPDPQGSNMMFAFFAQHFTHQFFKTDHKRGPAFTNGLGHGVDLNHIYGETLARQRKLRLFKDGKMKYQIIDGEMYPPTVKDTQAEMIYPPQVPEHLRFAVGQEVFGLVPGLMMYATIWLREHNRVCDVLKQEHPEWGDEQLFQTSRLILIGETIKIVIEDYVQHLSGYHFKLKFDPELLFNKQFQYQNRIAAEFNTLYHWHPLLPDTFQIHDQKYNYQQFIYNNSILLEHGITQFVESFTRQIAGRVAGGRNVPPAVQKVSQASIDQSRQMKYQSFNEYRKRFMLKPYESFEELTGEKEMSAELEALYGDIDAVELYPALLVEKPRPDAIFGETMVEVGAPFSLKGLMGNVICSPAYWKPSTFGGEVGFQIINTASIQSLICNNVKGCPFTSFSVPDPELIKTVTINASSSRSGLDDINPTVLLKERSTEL

[2] = target: T2, Prostaglandin G/H synthase 1 (Homo sapiens, UniProt P23219)
Description: In vitro inhibition of the production of PGE-2 in arachidonic acid stimulated chinese hamster ovary (CHO) cells transfected with human cyclooxygenase-1

[3] = target: T2, Prostaglandin G/H synthase 1; experiment: In vivo ability to inhibit cyclooxygenase-1 enzyme in human whole blood was determined; assay type: organism-based
[4] = system: Rattus norvegicus; experiment: GI tolerance when rats were dosed at 100 mg/kg for 10 days in GI permeability assay; High level of GI tolerance; assay type: functional, organism-based; set-up: dose 100 mg/kg
[5] = target: T1, Prostaglandin G/H synthase 2; experiment: (§1) In vivo ability to inhibit cyclooxygenase-2 enzyme in human whole blood was determined; assay type: organism-based
[6] = Maximum concentration in rats at 1 hr was determined when dosed at 20 mg/Kg perorally; assay type: ADME, organism-based; set-up: dose 20 mg/Kg, route oral; settings: rat, in vivo, po
[7] = system: Rattus norvegicus; experiment: Effective dose to inhibit carrageenan induced rat paw edema assay was determined; assay type: functional
[8] = target: Prostaglandin G/H synthase 2 (Homo sapiens, UniProt P35354); experiment: as §1; assay type: organism-based; remark: listed apart in the source
[9] = organism: Rattus norvegicus; experiment: animal or person; settings: read-out: Inhibition
Description: Percentage inhibition against carrageenan induced rat paw edema assay was determined at a dose of 10 mg/Kg

T2 sequence (P23219 whole entry): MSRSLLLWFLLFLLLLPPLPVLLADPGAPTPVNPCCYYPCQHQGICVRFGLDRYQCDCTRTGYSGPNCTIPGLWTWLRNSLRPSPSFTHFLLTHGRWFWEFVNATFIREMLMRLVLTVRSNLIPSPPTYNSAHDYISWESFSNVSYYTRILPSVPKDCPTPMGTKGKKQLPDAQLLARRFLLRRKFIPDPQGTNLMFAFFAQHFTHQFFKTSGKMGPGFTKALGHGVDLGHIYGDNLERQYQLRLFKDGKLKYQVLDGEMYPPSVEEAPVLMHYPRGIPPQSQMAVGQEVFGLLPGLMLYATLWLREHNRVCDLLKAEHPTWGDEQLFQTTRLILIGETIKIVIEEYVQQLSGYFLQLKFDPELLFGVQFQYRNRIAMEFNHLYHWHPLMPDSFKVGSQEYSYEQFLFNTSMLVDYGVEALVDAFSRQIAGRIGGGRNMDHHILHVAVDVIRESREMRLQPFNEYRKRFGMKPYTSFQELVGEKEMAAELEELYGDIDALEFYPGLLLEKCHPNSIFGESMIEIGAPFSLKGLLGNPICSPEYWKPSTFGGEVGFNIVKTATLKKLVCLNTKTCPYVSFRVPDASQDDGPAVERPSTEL

SMILES	IC50 [1] [nM]	IC50 [2] [µM]	further results
Cc1cn2c(-c3ccccc3)c(-c3ccc(S(C)(=O)=O)cc3)nc2s1	140	> 50	
CS(=O)(=O)c1ccc(-c2c(-c3ccccc3)nc3sccn23)cc1	16	> 50	IC50 [3]: > 30 µM; GI tolerance [4]: High level of GI tolerance; IC50 [5]: 900 nM; Cmax [6]: 1000 nM; ED50 [7]: 2 mg/kg
CS(=O)(=O)c1ccc(-c2c(-c3ccccc3)nc3scc(CC(=O)O)n23)cc1	> 5000		
CS(=O)(=O)c1ccc(-c2nc3sc4ccccc4n3c2-c2ccccc2)cc1	> 5000	> 50	
CS(=O)(=O)c1ccc(-c2c(-c3ccc(F)cc3)nc3sccn23)cc1	14	> 50	IC50 [8]: 25 µM; IC50 [5]: 400 nM; ED50 [7]: 5 mg/kg
CS(=O)(=O)c1ccc(-c2c(-c3ccc(F)c(F)c3)nc3sccn23)cc1	12	> 50	IC50 [5]: 2200 nM
Cc1cn2c(-c3ccc(S(C)(=O)=O)cc3)c(-c3ccccc3)nc2s1	12	> 50	IC50 [5]: 17500 nM
CS(=O)(=O)c1ccc(-c2nc3sccn3c2-c2ccccc2)cc1	3210	> 50	
CSc1ccc(-c2nc3sccn3c2-c2ccccc2)cc1	5000	0.078	
CS(=O)(=O)c1ccc(-c2cc(Br)sc2-c2ccc(F)cc2)cc1 [DUP-697]			inhibition in vivo at 10 mg/kg [9]: 57%
Cc1sc2nc(-c3ccc(S(C)(=O)=O)cc3)c(-c3ccccc3)n2c1C	> 5000	> 50	
CSc1ccc(-c2c(-c3ccccc3)nc3sccn23)cc1	420	0.32	
CCOC(=O)Cc1csc2nc(-c3ccccc3)c(-c3ccc(S(C)(=O)=O)cc3)n12	900		
Cc1csc2nc(-c3ccccc3)c(-c3ccc(S(C)(=O)=O)cc3)n12	3000	> 50	
Cc1csc2nc(-c3ccc(S(C)(=O)=O)cc3)c(-c3ccccc3)n12	1000	> 50	
CS(=O)(=O)c1ccc(-c2c(-c3ccccc3)nc3sc4ccccc4n23)cc1	> 5000	> 50	
CS(=O)(=O)c1ccc(-c2c(-c3ccc(Cl)cc3)nc3sc(Cl)cn23)cc1	16	> 50	
Cc1sc2nc(-c3ccccc3)c(-c3ccc(S(C)(=O)=O)cc3)n2c1C	5000	> 50	
CS(=O)(=O)c1ccc(-c2c(-c3ccc(Cl)cc3)nc3sc(Cl)c(Cl)n23)cc1	3600	> 50	
